This passage reports EC50 results from US10034886B2, “GLP-1 receptor modulators” (Celgene International II SÀRL, priority 2014, dated 2018).

The structures appear in SMILES notation.

The experiment deals with T1, GLP-1R (Homo sapiens, UniProt P43220).
T1 construct: host or cells: GLP-1R CRE-bla CHO-K1 cells
T1 sequence (P43220 24-463): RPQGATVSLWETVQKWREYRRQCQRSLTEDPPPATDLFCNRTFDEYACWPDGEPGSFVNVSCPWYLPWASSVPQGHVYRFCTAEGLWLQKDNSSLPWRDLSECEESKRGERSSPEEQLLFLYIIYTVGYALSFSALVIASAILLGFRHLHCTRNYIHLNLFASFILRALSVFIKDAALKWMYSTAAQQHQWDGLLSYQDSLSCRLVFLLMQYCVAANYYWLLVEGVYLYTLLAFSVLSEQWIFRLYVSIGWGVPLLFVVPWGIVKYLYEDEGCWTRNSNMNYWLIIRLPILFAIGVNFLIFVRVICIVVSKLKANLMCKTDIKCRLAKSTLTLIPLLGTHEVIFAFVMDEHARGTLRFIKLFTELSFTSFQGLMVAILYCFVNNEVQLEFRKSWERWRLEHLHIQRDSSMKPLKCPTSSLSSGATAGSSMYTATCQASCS
T1 sequence (P01275 100-127 partner limits assumed): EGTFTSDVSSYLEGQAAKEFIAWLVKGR
In words: EC20 GLP-1(9-36) PAM cAMP assay: dose response of compound in the presence of fixed concentration of GLP-1(9-36). To be noted: dose response of compound in presence of fixed concentration of GLP-1(9-36), GLP-1R CRE-bla CHO-K1 cells, read-out: EC20 GLP-1(9-36) PAM EC50. The class given is cell-based. The procedure, abridged:
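Positive allosteric modulation read as cAMP accumulation: compound titrations (12 points) combined with an EC20 level of GLP-1(9-36) on CHO-K1 GLP-1R CRE-bla cells, IBMX present, 30 min, 37 °C, pH 7.4 buffer. Luminescence converted to cAMP via standards; non-linear fit gave EC50 and Emax.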
(Changes in cAMP serve as a functional read-out for many G protein-coupled receptors.)
As for `COc1cc(-c2cnc(-c3ccc(C[C@H](NC(=O)c4ccc(C(C)(C)C)s4)C(=O)N[C@H](C)C(=O)O)cc3)nc2)ccc1OCc1ccccc1` [Compound 999], the EC50 lay in the range of 2.5 to 5 µM.
For the compound `C[C@@H](NC(=O)[C@H](Cc1ccc(-c2ncc(-c3ccc(Oc4ccccc4)cc3)cn2)cc1)NC(=O)c1ccc(C(C)(C)C)s1)C(=O)O` [Compound 1000], the EC50 is 5 to 10 µM.
In the case of `C[C@@H](NC(=O)[C@H](Cc1ccc(-c2ncc(-c3ccc(OCc4ccccc4)c(Cl)c3)cn2)cc1)NC(=O)c1ccc(C(C)(C)C)s1)C(=O)O` [Compound 1001], the EC50 is 2.5 to 5 µM.
As to `COc1ccc(-c2ccc(-c3cnc(-c4ccc(C[C@H](NC(=O)c5ccc(C(C)(C)C)s5)C(=O)N[C@H](C)C(=O)O)cc4)nc3)cc2)cc1` [Compound 1002], the EC50 lay within 0.8 to 2.5 µM.
Take `COc1ccc(-c2cnc(-c3ccc(C[C@H](NC(=O)c4ccc(C(C)(C)C)s4)C(=O)N[C@H](C)C(=O)O)cc3)nc2)c(F)c1OCC(C)C` [Compound 1003]: the EC50 was in the range of 5 to 10 µM.
The same measure for `CCOc1cc(-c2cnc(-c3ccc(C[C@H](NC(=O)c4ccc(C(C)(C)C)s4)C(=O)N[C@H](C)C(=O)O)cc3)nc2)ccc1OC(F)(F)F` [Compound 1004]: 0.8 to 2.5 µM; for `CCCOc1ccc(-c2cnc(-c3ccc(C[C@H](NC(=O)c4ccc(C(C)(C)C)s4)C(=O)N[C@H](C)C(=O)O)cc3)nc2)cc1C` [Compound 1005]: 0.8 to 2.5 µM; for `Cc1cc(C)n(-c2ccc(-c3cnc(-c4ccc(C[C@H](NC(=O)c5ccc(C(C)(C)C)s5)C(=O)N[C@H](C)C(=O)O)cc4)nc3)cc2)n1` [Compound 1006]: 0.8 to 2.5 µM.
The same measure for `Cc1cc(-c2cnc(-c3ccc(C[C@H](NC(=O)c4ccc(C(C)(C)C)s4)C(=O)N[C@H](C)C(=O)O)cc3)nc2)ccc1OC(C)C` [Compound 1007]: 0.8 to 2.5 µM.
The same measure for `C[C@@H](NC(=O)[C@H](Cc1ccc(-c2ncc(-c3cc4ccccc4cc3O)cn2)cc1)NC(=O)c1ccc(C(C)(C)C)s1)C(=O)O` [Compound 1008]: 5 to 10 µM.
Consider `C[C@@H](NC(=O)[C@H](Cc1ccc(-c2ncc(-c3ccc(Oc4ccccc4F)nc3)cn2)cc1)NC(=O)c1ccc(C(C)(C)C)s1)C(=O)O` [Compound 1009], for which the EC50 lay in the range of 2.5 to 5 µM.
Next, `C[C@@H](NC(=O)[C@H](Cc1ccc(-c2ncc(-c3ccc4c(ccn4S(=O)(=O)c4ccccc4)c3)cn2)cc1)NC(=O)c1ccc(C(C)(C)C)s1)C(=O)O` [Compound 1010]: 2.5 to 5 µM.
For `CC(C)COc1cc(-c2cnc(-c3ccc(C[C@H](NC(=O)c4ccc(C(C)(C)C)s4)C(=O)N[C@H](C)C(=O)O)cc3)nc2)cc(Cl)c1F` [Compound 1011], the EC50 was 2.5 to 5 µM.
As for `COc1ccccc1-c1ccc(-c2cnc(-c3ccc(C[C@H](NC(=O)c4ccc(C(C)(C)C)s4)C(=O)N[C@H](C)C(=O)O)cc3)nc2)cc1` [Compound 1012], the EC50 lay in the range of 2.5 to 5 µM.
Consider `CC(C)Oc1cc(-c2cnc(-c3ccc(C[C@H](NC(=O)c4ccc(C(C)(C)C)s4)C(=O)N[C@H](C)C(=O)O)cc3)nc2)ccc1OC(F)(F)F` [Compound 1013], for which the EC50 fell in the range of 5 to 10 µM.
Regarding `CCCCC(=O)c1ccc(-c2cnc(-c3ccc(C[C@H](NC(=O)c4ccc(C(C)(C)C)s4)C(=O)N[C@H](C)C(=O)O)cc3)nc2)c(C)c1` [Compound 1014], the EC50 lay within 5 to 10 µM.
The same measure for `C[C@@H](NC(=O)[C@H](Cc1ccc(-c2ncc(-c3ccc(N(c4ccccc4)c4ccccc4)cc3)cn2)cc1)NC(=O)c1ccc(C(C)(C)C)s1)C(=O)O` [Compound 1015]: 0.8 to 2.5 µM.
Turning to `Cc1cccc(Oc2ccc(-c3cnc(-c4ccc(C[C@H](NC(=O)c5ccc(C(C)(C)C)s5)C(=O)N[C@H](C)C(=O)O)cc4)nc3)cn2)c1` [Compound 1016], the EC50 was in the range of 5 to 10 µM.
For the compound `CC(C)Oc1cc(-c2cnc(-c3ccc(C[C@H](NC(=O)c4ccc(C(C)(C)C)s4)C(=O)N[C@H](C)C(=O)O)cc3)nc2)cc(Cl)c1OC(C)C` [Compound 1017], the EC50 lay within 2.5 to 5 µM.
Next, `C[C@@H](NC(=O)[C@H](Cc1ccc(-c2ncc(-c3ccc(C(C)(C)C#N)cc3F)cn2)cc1)NC(=O)c1ccc(C(C)(C)C)s1)C(=O)O` [Compound 1018]: 5 to 10 µM; `COc1ccc(-c2cnc(-c3ccc(C[C@H](NC(=O)c4ccc(C(C)(C)C)s4)C(=O)N[C@H](C)C(=O)O)cc3)nc2)c(F)c1OC1CCCC1` [Compound 1019]: 2.5 to 5 µM; `C[C@@H](NC(=O)[C@H](Cc1ccc(-c2ncc(-c3cc(O)cc(OC(F)(F)F)c3)cn2)cc1)NC(=O)c1ccc(C(C)(C)C)s1)C(=O)O` [Compound 1020]: 5 to 10 µM.
Take `CC(C)Cc1ccc(-c2cnc(-c3ccc(C[C@H](NC(=O)c4ccc(C(C)(C)C)s4)C(=O)N[C@H](C)C(=O)O)cc3)nc2)cc1` [Compound 1021]: the EC50 lay within 2.5 to 5 µM.
`CCCCOc1c(OC)ccc(-c2cnc(-c3ccc(C[C@H](NC(=O)c4ccc(C(C)(C)C)s4)C(=O)N[C@H](C)C(=O)O)cc3)nc2)c1F` [Compound 1022]: the EC50 was 2.5 to 5 µM.
Regarding `Cc1ccccc1-c1ccc(-c2cnc(-c3ccc(C[C@H](NC(=O)c4ccc(C(C)(C)C)s4)C(=O)N[C@H](C)C(=O)O)cc3)nc2)cc1` [Compound 1023], the EC50 fell in the range of 2.5 to 5 µM.
The same measure for `C[C@@H](NC(=O)[C@H](Cc1ccc(-c2ncc(-c3cc4ccccc4s3)cn2)cc1)NC(=O)c1ccc(C(C)(C)C)s1)C(=O)O` [Compound 1024]: 0.8 to 2.5 µM; for `C[C@@H](NC(=O)[C@H](Cc1ccc(-c2ncc(-c3cc(OC(F)(F)F)ccc3F)cn2)cc1)NC(=O)c1ccc(C(C)(C)C)s1)C(=O)O` [Compound 1026]: 2.5 to 5 µM; for `C[C@@H](NC(=O)[C@H](Cc1ccc(-c2ncc(-c3ccc(OC(F)(F)F)c(OCC4CC4)c3)cn2)cc1)NC(=O)c1ccc(C(C)(C)C)s1)C(=O)O` [Compound 1027]: 5 to 10 µM.
Next, `CC(C)N(C(=O)c1ccc(-c2cnc(-c3ccc(C[C@H](NC(=O)c4ccc(C(C)(C)C)s4)C(=O)N[C@H](C)C(=O)O)cc3)nc2)cc1)C(C)C` [Compound 1028]: 2.5 to 5 µM; `C[C@@H](NC(=O)[C@H](Cc1ccc(-c2ncc(-c3ccc(Cl)cc3)cn2)cc1)NC(=O)c1ccc(C(C)(C)C)s1)C(=O)O` [Compound 1029]: 2.5 to 5 µM; `Cc1ccc(C(O)c2ccc(-c3cnc(-c4ccc(C[C@H](NC(=O)c5ccc(C(C)(C)C)s5)C(=O)N[C@H](C)C(=O)O)cc4)nc3)cc2)cc1` (stereo partly drawn) [Compound 1030]: 5 to 10 µM.
Regarding `C[C@@H](NC(=O)[C@H](Cc1ccc(-c2ncc(-c3ccc4c(C5CCCCO5)c(O)ccc4c3)cn2)cc1)NC(=O)c1ccc(C(C)(C)C)s1)C(=O)O` (stereo partly drawn) [Compound 1031], the EC50 is 2.5 to 5 µM.
For the compound `C[C@@H](NC(=O)[C@H](Cc1ccc(-c2ncc(-c3cccc(C(=O)Nc4cccc(F)c4)c3)cn2)cc1)NC(=O)c1ccc(C(C)(C)C)s1)C(=O)O` [Compound 1032], the EC50 is 0.8 to 2.5 µM.
Next, `CC(C)c1cccc(-c2cnc(-c3ccc(C[C@H](NC(=O)c4ccc(C(C)(C)C)s4)C(=O)N[C@H](C)C(=O)O)cc3)nc2)c1` [Compound 1033]: 5 to 10 µM; `CC(C)c1ccc(-c2cnc(-c3ccc(C[C@H](NC(=O)c4ccc(C(C)(C)C)s4)C(=O)N[C@H](C)C(=O)O)cc3)nc2)cc1` [Compound 1034]: 2.5 to 5 µM; `CC(C)Sc1ccc(-c2cnc(-c3ccc(C[C@H](NC(=O)c4ccc(C(C)(C)C)s4)C(=O)N[C@H](C)C(=O)O)cc3)nc2)cc1` [Compound 1035]: 0.8 to 2.5 µM.
On to `CCOc1cc(-c2cnc(-c3ccc(C[C@H](NC(=O)c4ccc(C(C)(C)C)s4)C(=O)N[C@H](C)C(=O)O)cc3)nc2)cc(C(F)(F)F)c1` [Compound 1036], for which the EC50 was in the range of 2.5 to 5 µM.
Turning to `CCCCN(Cc1ccc(OC)cc1)S(=O)(=O)c1ccc(-c2cnc(-c3ccc(C[C@H](NC(=O)c4ccc(C(C)(C)C)s4)C(=O)N[C@H](C)C(=O)O)cc3)nc2)cc1` [Compound 1037], the concentration giving a half-maximal response (EC50) was 0.8 to 2.5 µM.
On to `CC(C)COc1ncc(-c2cnc(-c3ccc(C[C@H](NC(=O)c4ccc(C(C)(C)C)s4)C(=O)N[C@H](C)C(=O)O)cc3)nc2)cc1Cl` [Compound 1038], for which the EC50 was in the range of 2.5 to 5 µM.
Next, `CCCCOc1cc(-c2cnc(-c3ccc(C[C@H](NC(=O)c4ccc(C(C)(C)C)s4)C(=O)N[C@H](C)C(=O)O)cc3)nc2)cc(Cl)c1OC(C)C` [Compound 1039]: 0.8 to 2.5 µM; `C[C@@H](NC(=O)[C@H](Cc1ccc(-c2ncc(-c3ccc(OCc4ccccc4)nc3)cn2)cc1)NC(=O)c1ccc(C(C)(C)C)s1)C(=O)O` [Compound 1040]: 5 to 10 µM; `C[C@@H](NC(=O)[C@H](Cc1ccc(-c2ncc(-c3cc(OCc4ccccc4)ncc3F)cn2)cc1)NC(=O)c1ccc(C(C)(C)C)s1)C(=O)O` [Compound 1041]: 0.8 to 2.5 µM.
As to `Cc1cc(C)cc(-c2cnc(-c3ccc(C[C@H](NC(=O)c4ccc(C(C)(C)C)s4)C(=O)N[C@H](C)C(=O)O)cc3)nc2)c1` [Compound 1042], the EC50 was 5 to 10 µM.
In the case of `C[C@@H](NC(=O)[C@H](Cc1ccc(-c2ncc(-c3ccc(C(=O)NCC4CCCCC4)cc3)cn2)cc1)NC(=O)c1ccc(C(C)(C)C)s1)C(=O)O` [Compound 1043], the EC50 was in the range of 2.5 to 5 µM.
In the case of `CCCCOc1ccc(-c2cnc(-c3ccc(C[C@H](NC(=O)c4ccc(C(C)(C)C)s4)C(=O)N[C@H](C)C(=O)O)cc3)nc2)cc1F` [Compound 1044], the EC50 lay in the range of 2.5 to 5 µM.
With `CCOc1cc(OC(F)(F)F)cc(-c2cnc(-c3ccc(C[C@H](NC(=O)c4ccc(C(C)(C)C)s4)C(=O)N[C@H](C)C(=O)O)cc3)nc2)c1F` [Compound 1045], the EC50 was 2.5 to 5 µM.
As for `C[C@@H](NC(=O)[C@H](Cc1ccc(-c2ncc(-c3ccc(C4CCCC4)cc3)cn2)cc1)NC(=O)c1ccc(C(C)(C)C)s1)C(=O)O` [Compound 1046], the EC50 was 0.8 to 2.5 µM.
As to `CCCCCCCOc1ccc(-c2cnc(-c3ccc(C[C@H](NC(=O)/C=C/c4ccc(OC)cc4)C(=O)N[C@H](C)C(=O)O)cc3)nc2)cc1` [Compound 1047], the EC50 was in the range of 2.5 to 5 µM.

What is called EC50 is the midpoint of the concentration-response curve.
